Residue numbers refer to the chain shown, from its start.
Assays:
[1] = in vivo; cited from earlier work
[2] = molecular target: T1, KCNJ3/KCNJ5^L168R (Homo sapiens, UniProt P48544, L168R); assay: Perforated whole-cell patch clamp, KCNJ3/KCNJ5^L168R heterotetramers in HEK293T cells; type: cell-based; conditions: 1 mM BaCl2, after 20 μM roxithromycin
T1 construct: GFP; expressed in transfected cells; host or cells: HEK293T (American Type Culture Collection), transient co-transfection
T1 sequence (P48544 1-419 L168R): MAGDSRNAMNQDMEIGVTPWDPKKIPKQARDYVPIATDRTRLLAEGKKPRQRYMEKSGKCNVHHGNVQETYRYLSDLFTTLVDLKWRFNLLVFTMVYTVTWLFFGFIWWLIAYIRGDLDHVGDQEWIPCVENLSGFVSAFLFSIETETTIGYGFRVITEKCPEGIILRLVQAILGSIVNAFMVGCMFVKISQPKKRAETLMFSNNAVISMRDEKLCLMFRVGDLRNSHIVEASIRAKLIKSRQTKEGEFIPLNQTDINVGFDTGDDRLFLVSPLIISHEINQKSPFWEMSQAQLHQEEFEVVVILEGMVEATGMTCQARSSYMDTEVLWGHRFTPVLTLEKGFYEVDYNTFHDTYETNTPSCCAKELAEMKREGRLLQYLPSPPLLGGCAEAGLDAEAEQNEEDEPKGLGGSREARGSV
T1 sequence (P48549 1-501 partner): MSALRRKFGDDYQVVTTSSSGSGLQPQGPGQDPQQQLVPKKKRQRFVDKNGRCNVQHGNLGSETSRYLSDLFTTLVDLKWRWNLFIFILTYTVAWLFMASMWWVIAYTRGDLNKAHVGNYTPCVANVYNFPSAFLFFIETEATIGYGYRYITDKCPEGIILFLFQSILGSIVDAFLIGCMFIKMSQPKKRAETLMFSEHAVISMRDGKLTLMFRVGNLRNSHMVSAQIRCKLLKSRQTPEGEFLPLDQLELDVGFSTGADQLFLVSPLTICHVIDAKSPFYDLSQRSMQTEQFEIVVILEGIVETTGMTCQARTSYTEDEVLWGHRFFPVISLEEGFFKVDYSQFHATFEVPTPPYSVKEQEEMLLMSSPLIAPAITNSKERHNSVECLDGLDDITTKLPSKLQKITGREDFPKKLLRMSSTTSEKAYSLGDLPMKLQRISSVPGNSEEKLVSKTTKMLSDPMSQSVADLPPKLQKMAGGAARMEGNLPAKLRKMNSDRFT
Procedure: (§1) HEK293T cells (American Type Culture Collection) were used for transient expression of GFP-tagged KCNJ5 or KCNJ3. The cells were grown in Dulbecco's modified Eagle medium (DMEM; Invitrogen) supplemented with 10% FBS (Invitrogen) in 5% CO2 and 95% air at 37° C. Cells were grown to 50-70% confluence for transfection, and the corresponding cDNAs (Choi et al., 2011, Science 331:768-772) were simultaneously applied to the cells using TurboFect transfection reagent according to the manufacturer's protocol (Fermentas). […]
(§2) Within 24 hr after transfection, the cells were treated with trypsin-containing medium (TrypLE Express) (Gibco) for 10 minutes to detach the cells. […] Fluorescence signal (an indication of positive transfection) was detected with an intensified video imaging system including a SIT 68 camera (Long Island Industries). […] After forming a high resistance seal (>2 GΩ), the membrane capacitance was monitored until the whole-cell patch configuration was formed. The cell membrane capacitance was measured and compensated. The K/cation currents were measured from −80 mV to 20 mV with 20 mV steps by an Axon 200A patch-clamp amplifier. The currents were low-pass filtered at 1 KHz and digitized by an Axon interface (Digidata 1200) and were analyzed using the pClamp software system 9 (Axon). […]

[3] = molecular target: T2, KCNJ3/KCNJ5^WT (Homo sapiens, UniProt P48544); assay: Perforated whole-cell patch clamp, KCNJ3/KCNJ5^WT heterotetramers in HEK293T cells; type: cell-based; conditions: 1 mM BaCl2
T2 construct: GFP; expressed in transfected cells; host or cells: HEK293T (American Type Culture Collection), transient co-transfection
T2 sequence (P48544 1-419): T1 sequence (P48544 1-419 L168R) with R168L
T2 sequence (P48549 1-501 partner): T1 sequence (P48549 1-501 partner)
Procedure: as §1, §2

In the case of C[C@]12CCC(=O)C=C1CC[C@@H]1[C@@H]2[C@@H](O)C[C@]2(C=O)[C@@H](C(=O)CO)CC[C@@H]12 [aldosterone], the plasma half-life [1] is given as roughly 30 min.
For [Ba+2].[Cl-].[Cl-] [barium, BaCl2], the “block of remaining KCNJ3/KCNJ5^L168R current” value [2] was “blocked” and the “barium sensitivity of KCNJ3/KCNJ5^WT currents” value [3] was “sensitive”.

Source: US11484543B2, “Compositions and methods for diagnosing and treating diseases and disorders associated with mutant KCNJ5” (The Rockefeller University, priority 2017, dated 2022)
